In patent US9409884B2 (Rigel Pharmaceuticals, Inc., priority 2012, dated 2016) one finds EC50 data, which are given here for 29 compounds.

pEC50: −log10 of the molar value. A value given as a limit tells only on which side of the number the result lay.

This experiment concerns the target AMPK. Put plainly: AMPK activation, enzyme-linked immunosorbent assay. In kind it is biochemical. The note with it: Table 13, compounds of Table 6. The procedure, abridged: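 AMPK activation by test compounds was measured by enzyme-linked immunosorbent assay.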
In general, pEC50 refers to −log10 of the EC50, conventionally taken in molar units. The low end stands for a high EC50, the high end for a low EC50. As for `N#Cc1ccc(CN2CCC(NC(=O)c3cc4cc(NC(=O)C5CCN(c6ccc(C#N)cn6)CC5)ccc4o3)CC2)cc1` [Compound 6-70, N-(2-(1-(4-cyanobenzyl)piperidin-4-ylcarbamoyl)benzofuran-5-yl)-1-(5-cyanopyridin-2-yl)piperidine-4-carboxamide], the pEC50 is > 7.00. The compound `N#Cc1ccc(CN2CCC(NC(=O)c3cc4cc(NC(=O)c5ccc(Oc6ccc(C#N)cn6)cc5)ccc4o3)CC2)cc1` [Compound 6-71, N-(1-(4-cyanobenzyl)piperidin-4-yl)-5-(4-(5-cyanopyridin-2-yloxy)benzamido)benzofuran-2-carboxamide] showed a negative-log EC50 (pEC50) of 6.00 to 7.00. The figure for `N#Cc1ccc(CN2CCC(NC(=O)c3cc4cc(NC(=O)c5cnn(Cc6ccc(C(F)(F)F)cc6)c5)ccc4o3)CC2)cc1` [Compound 6-72, N-(2-(1-(4-cyanobenzyl)piperidin-4-ylcarbamoyl)benzofuran-5-yl)-1-(4-(trifluoromethyl)benzyl)-1H-pyrazole-4-carboxamide] is 5.00 to 6.00.

Compound `N#Cc1ccc(CN2CCC(NC(=O)c3cc4cc(NC(=O)c5cnn(Cc6ccc(C#N)cc6)c5)ccc4o3)CC2)cc1` [Compound 6-73, 1-(4-cyanobenzyl)-N-(2-(1-(4-cyanobenzyl)piperidin-4-ylcarbamoyl)benzofuran-5-yl)-1H-pyrazole-4-carboxamide] had a pEC50 of 5.00 to 6.00. The figure for `N#Cc1ccc(CN2CCC(NC(=O)c3cc4cc(NC(=O)C5CN(c6ccc(C#N)cc6)C5)ccc4o3)CC2)cc1` [Compound 6-74, N-(2-(1-(4-cyanobenzyl)piperidin-4-ylcarbamoyl)benzofuran-5-yl)-1-(4-cyanophenyl)azetidine-3-carboxamide] is 6.00 to 7.00; for `N#Cc1ccc(CN2CCC(NC(=O)c3cc4cc(NC(=O)C5CCN(c6ccc(C#N)cc6)CC5)ccc4o3)CC2)cc1` [Compound 6-76, N-(2-(1-(4-cyanobenzyl)piperidin-4-ylcarbamoyl)benzofuran-5-yl)-1-(4-cyanophenyl)piperidine-4-carboxamide] it is > 7.00. The figure for `N#Cc1ccc(CN2CCC(NC(=O)c3cc4cc(C(=O)N5CCN(Cc6cnn(-c7ccc(C#N)cc7)c6)CC5)ccc4o3)CC2)cc1` [Compound 6-77, N-(1-(4-cyanobenzyl)piperidin-4-yl)-5-(4-((1-(4-cyanophenyl)-1H-pyrazol-4-yl)methyl)piperazine-1-carbonyl)benzofuran-2-carboxamide] is > 7.00. Regarding `N#Cc1ccc(CN2CCC(NC(=O)c3cc4cc(C(=O)N5CCN(Cc6ccc(-n7cccn7)cc6)CC5)ccc4o3)CC2)cc1` [Compound 6-79, 5-(4-(4-(1H-pyrazol-1-yl)benzyl)piperazine-1-carbonyl)-N-(1-(4-cyanobenzyl)piperidin-4-yl)benzofuran-2-carboxamide], the pEC50 is > 7.00. Take `N#Cc1ccc(CN2CCC(NC(=O)c3cc4cc(C(=O)N5CCN(Cc6ccc(N7CCCC7)cc6)CC5)ccc4o3)CC2)cc1` [Compound 6-80, N-(1-(4-cyanobenzyl)piperidin-4-yl)-5-(4-(4-(pyrrolidin-1-yl)benzyl)piperazine-1-carbonyl)benzofuran-2-carboxamide]: the negative logarithm of the EC50 (pEC50) is > 7.00. Regarding `N#Cc1ccc(CN2CCC(NC(=O)c3cc4cc(C(=O)N5CCN(Cc6ccc(OC(F)(F)F)cc6)CC5)ccc4o3)CC2)cc1` [Compound 6-81, N-(1-(4-cyanobenzyl)piperidin-4-yl)-5-(4-(4-(trifluoromethoxy)benzyl)piperazine-1-carbonyl) benzofuran-2-carboxamide], the negative logarithm of the EC50 (pEC50) was > 7.00. Regarding `N#Cc1ccc(CN2CCC(NC(=O)c3cc4cc(C(=O)N5CCN(Cc6ccc(-c7ccccn7)cc6)CC5)ccc4o3)CC2)cc1` [Compound 6-82, N-(1-(4-cyanobenzyl)piperidin-4-yl)-5-(4-(4-(pyridin-2-yl)benzyl)piperazine-1-carbonyl)benzofuran-2-carboxamide], the negative logarithm of the EC50 (pEC50) was > 7.00.

`N#Cc1ccc(CN2CCC(NC(=O)c3cc4cc(NC(=O)C5CCN(c6ccc(C(F)(F)F)cc6)CC5)ccc4o3)CC2)cc1` [Compound 6-83, N-(2-(1-(4-cyanobenzyl)piperidin-4-ylcarbamoyl)benzofuran-5-yl)-1-(4-(trifluoromethyl)phenyl) piperidine-4-carboxamide] showed a pEC50 of 5.00 to 6.00. The figure for `CS(=O)(=O)c1ccc(N2CCC(C(=O)Nc3ccc4oc(C(=O)NC5CCN(Cc6ccc(C#N)cc6)CC5)cc4c3)CC2)cc1` [Compound 6-84, N-(2-(1-(4-cyanobenzyl)piperidin-4-ylcarbamoyl)benzofuran-5-yl)-1-(4-(methylsulfonyl)phenyl) piperidine-4-carboxamide] is > 7.00. The figure for `CS(=O)(=O)c1ccc(C(=O)Nc2ccc3oc(C(=O)NC4CCN(Cc5ccc(C#N)cc5)CC4)cc3c2)cc1` [Compound 6-85, N-(1-(4-cyanobenzyl)piperidin-4-yl)-5-(4-(methylsulfonyl)benzamido) benzofuran-2-carboxamide] is 5.00 to 6.00; for `N#Cc1ccc(CN2CCC(NC(=O)c3cc4cc(C(=O)N5CCN(c6ccc(F)cc6)CC5)ccc4o3)CC2)cc1` [Compound 6-86, N-(1-(4-cyanobenzyl)piperidin-4-yl)-5-(4-(4-fluorophenyl)piperazine-1-carbonyl)benzofuran-2-carboxamide] it is > 7.00; for `CS(=O)(=O)c1ccc(N2CCN(C(=O)c3ccc4oc(C(=O)NC5CCN(Cc6ccc(C#N)cc6)CC5)cc4c3)CC2)cc1` [Compound 6-87, N-(1-(4-cyanobenzyl)piperidin-4-yl)-5-(4-(4-(methylsulfonyl)phenyl)piperazine-1-carbonyl) benzofuran-2-carboxamide] it is 6.00 to 7.00. The figure for `N#Cc1ccc(CN2CCC(NC(=O)c3cc4cc(C(=O)NC5CCN(c6ccc(C#N)cc6)CC5)ccc4o3)CC2)cc1` [Compound 6-90, N2-(1-(4-cyanobenzyl)piperidin-4-yl)-N5-(1-(4-cyanophenyl)piperidin-4-yl)benzofuran-2,5-dicarboxamide] is > 7.00. Regarding `N#Cc1ccc(CN2CCC(NC(=O)c3cc4cc(C(=O)NC5CCN(Cc6ccn(-c7ccc(C#N)cc7)n6)CC5)ccc4o3)CC2)cc1` [Compound 6-91, N2-(1-(4-cyanobenzyl)piperidin-4-yl)-N5-(1-((1-(4-cyanophenyl)-1H-pyrazol-3-yl)methyl)piperidin-4-yl)benzofuran-2,5-dicarboxamide], the pEC50 is 5.00 to 6.00. The figure for `N#Cc1ccc(CN2CCC(NC(=O)c3cc4cc(C(=O)NC5CCN(Cc6ccc(-n7cccn7)cc6)CC5)ccc4o3)CC2)cc1` [Compound 6-92, N5-(1-(4-(lH-pyrazol-1-yl)benzyl)piperidin-4-yl)-N2-(1-(4-cyanobenzyl)piperidin-4-yl)benzofuran-2,5-dicarboxamide] is 6.00 to 7.00.

`N#Cc1ccc(CN2CCC(NC(=O)c3cc4cc(C(=O)NC5CCN(Cc6ccc(OC(F)(F)F)cc6)CC5)ccc4o3)CC2)cc1` [Compound 6-93, N2-(1-(4-cyanobcnzyl)piperidin-4-yl)-N5-(1-(4-(trifluoromethoxy)benzyl)piperidin-4-yl)benzofuran-2,5-dicarboxamide] gave a pEC50 of 6.00 to 7.00. The figure for `COc1ccc(CN2CCC(NC(=O)c3cc4cc(C(=O)N5CCN(Cc6ccc(S(C)(=O)=O)cc6)CC5)ccc4o3)CC2)cc1` [Compound 6-94, N-(1-(4-methoxybenzyl)piperidin-4-yl)-5-(4-(4-(methylsulfonyl)benzyl)piperazine-1-carbonyl) benzofuran-2-carboxamide] is 6.00 to 7.00; for `CS(=O)(=O)c1ccc(CN2CCN(C(=O)c3ccc4oc(C(=O)NC5CCN(Cc6ccc(OC(F)(F)F)cc6)CC5)cc4c3)CC2)cc1` [Compound 6-95, 5-(4-(4-(methylsulfonyl)benzyl)piperazine-1-carbonyl)-N-(1-(4-(trifluoromethoxy)benzyl)piperidin-4-yl)benzofuran-2-carboxamide] it is 6.00 to 7.00. The figure for `COc1ccc(CN2CCC(NC(=O)c3cc4cc(C(=O)N5CCN(Cc6ccc(-n7cccn7)cc6)CC5)ccc4o3)CC2)cc1` [Compound 6-96, 5-(4-(4-(1H-pyrazol-1-yl)benzyl)piperazine-1-carbonyl)-N-(1-(4-methoxybenzyl)piperidin-4-yl)benzofuran-2-carboxamide] is > 7.00; for `O=C(NC1CCN(Cc2ccc(OC(F)(F)F)cc2)CC1)c1cc2cc(C(=O)N3CCN(Cc4ccc(-n5cccn5)cc4)CC3)ccc2o1` [Compound 6-97, 5-(4-(4-(1H-pyrazol-1-yl)benzyl)piperazine-1-carbonyl)-N-(1-(4-(trifluoromcthoxy)benzyl)piperidin-4-yl)benzofuran-2-carboxamide] it is > 7.00. Compound `COc1cc(CN2CCC(NC(=O)c3cc4cc(C(=O)N5CCN(Cc6ccc(S(C)(=O)=O)cc6)CC5)ccc4o3)CC2)ccc1F` [Compound 6-98, N-(1-(4-fluoro-3-methoxybenzyl)piperidin-4-yl)-5-(4-(4-(methylsulfonyl)benzyl)piperazine-1-carbonyl) benzofiiran-2-carboxamide] gave a negative logarithm of the EC50 (pEC50) of 6.00 to 7.00. The figure for `COc1cccc(CN2CCC(NC(=O)c3cc4cc(C(=O)N5CCN(Cc6ccc(S(C)(=O)=O)cc6)CC5)ccc4o3)CC2)c1` [Compound 6-99, N-(1-(3-methoxybenzyl)piperidin-4-yl)-5-(4-(4-(methylsulfonyl)benzyl)piperazine-1-carbonyl) benzofuran-2-carboxamide] is 5.00 to 6.00; for `CS(=O)(=O)c1ccc(CN2CCN(C(=O)c3ccc4oc(C(=O)NC5CCN(Cc6ccc(OC(F)F)cc6)CC5)cc4c3)CC2)cc1` [Compound 6-101, N-(1-(4-(difluoromethoxy)benzyl)piperidin-4-yl)-5-(4-(4-(methylsulfonyl)benzyl)piperazine-1-carbonyl) benzofuran-2-carboxamide] it is 6.00 to 7.00. As for `CS(=O)(=O)c1ccc(CN2CCN(C(=O)c3ccc4oc(C(=O)NC5CCN(Cc6ccc(C#N)cc6)CC5)cc4c3)CC2)cc1F` [Compound 6-102], the pEC50 is > 7.00. The figure for `Cc1cc(CN2CCN(C(=O)c3ccc4oc(C(=O)NC5CCN(Cc6ccc(C#N)cc6)CC5)cc4c3)CC2)ccc1S(C)(=O)=O` [Compound 6-103, N-(1-(4-cyanobenzyl)piperidin-4-yl)-5-(4-(3-methyl-4-(methylsulfonyl)benzyl)piperazine-1-carbonyl) benzofuran-2-carboxamide] is > 7.00.
